This is an account of results in ChEMBL document CHEMBL3414490 (Eur J Med Chem, 2015).

The target of one assay is Prothrombin (Homo sapiens, UniProt P00734). Nature of the assay: Inhibition of human thrombin using Ac-FVR-AMC as substrate incubated for 10 mins prior to substrate addition measured for 10 min by fluorescence assay.
Assay [1] has as its system Rattus norvegicus. Nature of the assay: Anticoagulant activity in Sprague-Dawley rat plasma assessed as prothrombin time at 3 mg/ml administered for 4 days. It counts as functional.
The test system of assay [2] is Rattus norvegicus. Kind of assay: Anticoagulant activity in Sprague-Dawley rat plasma assessed as fibrinogen level at 3 mg/ml administered for 4 days. It counts as functional.
The test system of assay [3] is Rattus norvegicus. Nature of the assay: Inhibition of thrombin-induced platelet aggregation in Sprague-Dawley rat at 3 mg/ml administered for 4 days relative to control. It counts as functional.
Assay [4] deals with Rattus norvegicus. Nature of the assay: Anticoagulant activity in Sprague-Dawley rat plasma assessed as activated partial […] time at 3 mg/ml administered for 4 days. It counts as functional.
In the next assay the test system is Plasma. Nature of the assay: Anticoagulant activity in Sprague-Dawley rat plasma assessed as thrombin time at 3 mg/ml administered for 4 days. It counts as functional.
For assay [5], the system named is Rattus norvegicus. Nature of the assay: Inhibition of arterial/venous thromboembolic weight in Sprague-Dawley rat at 3 mg/ml administered for 4 days relative to control. It counts as functional.

On to `CCn1c(CNc2ccc(C(=N)N)cc2F)nc2cc(C(=O)N(CCC(=O)O)c3ccc(F)cc3)ccc21`, for which, on Prothrombin, the midpoint of inhibition, the IC50, lay at 4.9 nM. This counts as single-digit nanomolar.

As to `Cn1c(CNc2ccc(C(=N)N)cc2F)nc2cc(C(=O)N(CCC(=O)O)c3ccccc3)ccc21`, 5.86 nM corresponded to half-maximal inhibition on Prothrombin (IC50).

As for `Cc1ccccc1N(CCC(=O)O)C(=O)c1ccc2c(c1)nc(CNc1ccc(C(=N)N)cc1F)n2C`, the IC50 (in general, the concentration needed to halve the response being measured) against Prothrombin came to 6.13 nM.

On to `Cn1c(CNc2ccc(C(=N)N)cc2F)nc2cc(C(=O)N(CCC(=O)O)c3ccccc3F)ccc21`, for which inhibition on Prothrombin was half-maximal at 4.93 nM (IC50).

With `COc1cccc(N(CCC(=O)O)C(=O)c2ccc3c(c2)nc(CNc2ccc(C(=N)N)cc2F)n3C)c1`, the IC50 against Prothrombin worked out at 4.84 nM.

For `Cn1c(CNc2ccc(C(=N)N)cc2F)nc2cc(C(=O)N(CCC(=O)O)c3cccc(F)c3)ccc21`, 4.54 nM corresponded to half-maximal inhibition against Prothrombin (IC50).

`COc1ccc(N(CCC(=O)O)C(=O)c2ccc3c(c2)nc(CNc2ccc(C(=N)N)cc2F)n3C)cc1` registered an IC50 against Prothrombin of 16.3 nM.

`Cn1c(CNc2ccc(C(=N)N)cc2F)nc2cc(C(=O)N(CCC(=O)O)c3ccc(F)cc3)ccc21`: it took 5.43 nM to reach half-maximal inhibition against Prothrombin (IC50).

On to `Cn1c(CNc2ccc(C(=N)N)cc2F)nc2cc(C(=O)N(CCC(=O)O)c3ccccn3)ccc21`, for which inhibition at Prothrombin was half-maximal at 3.49 nM (IC50).

At Prothrombin, `Cc1ccc(N(CCC(=O)O)C(=O)c2ccc3c(c2)nc(CNc2ccc(C(=N)N)cc2F)n3C)nc1` gave an IC50 of 24 nM.

On Prothrombin, `CCn1c(CNc2ccc(C(=N)N)cc2F)nc2cc(C(=O)N(CCC(=O)O)c3ccccc3)ccc21` had an IC50 of 5.63 nM.

Turning to `CCn1c(CNc2ccc(C(=N)N)cc2F)nc2cc(C(=O)N(CCC(=O)O)c3ccccc3C)ccc21`, the concentration for half-maximal inhibition (IC50) at Prothrombin is 7.26 nM. The IC50 values of the last two molecules are within 1.5-fold of each other.

In turn, `CCn1c(CNc2ccc(C(=N)N)cc2F)nc2cc(C(=O)N(CCC(=O)O)c3ccccc3OC)ccc21` gave an IC50 against Prothrombin of 21.6 nM. This IC50 lies about 3-fold higher than the previous one.

At Prothrombin, `CCn1c(CNc2ccc(C(=N)N)cc2F)nc2cc(C(=O)N(CCC(=O)O)c3ccccc3F)ccc21` displayed an IC50 of 3.71 nM.

Molecule `CCn1c(CNc2ccc(C(=N)N)cc2F)nc2cc(C(=O)N(CCC(=O)O)c3cccc(OC)c3)ccc21` gave an IC50 on Prothrombin of 8.4 nM. Against the preceding molecule, the IC50 is about 2.3-fold higher.

For the molecule `CCn1c(CNc2ccc(C(=N)N)cc2F)nc2cc(C(=O)N(CCC(=O)O)c3cccc(F)c3)ccc21`, the midpoint of inhibition at Prothrombin, the IC50, lay at 4.92 nM.

With `CCn1c(CNc2ccc(C(=N)N)cc2F)nc2cc(C(=O)N(CCC(=O)O)c3ccc(OC)cc3)ccc21`, the midpoint of inhibition on Prothrombin, the IC50, lay at 23.3 nM. This IC50 lies about 4.7-fold higher than the previous one.

`CCn1c(CNc2ccc(C(=N)N)cc2F)nc2cc(C(=O)N(CCC(=O)O)c3ccc(Cl)cc3)ccc21` returned an IC50 against Prothrombin of 13.6 nM.

Turning to `Cn1c(CNc2ccc(C(=N)N)cc2)nc2cc(C(=O)N(CCC(=O)O)c3ccccc3F)ccc21`, inhibition at Prothrombin was half-maximal at 3.23 nM (IC50).

In the case of `CCn1c(CNc2ccc(C(=N)N)cc2F)nc2cc(C(=O)N(CCC(=O)O)c3ccccn3)ccc21`, on Prothrombin, the half-inhibitory concentration (IC50) was found to be 3.39 nM.

Regarding `CCn1c(CNc2ccc(C(=N)N)cc2F)nc2cc(C(=O)N(CCC(=O)O)c3ccc(C)cn3)ccc21`, the IC50 against Prothrombin amounted to 19.2 nM.

As for `CCCCCCOC(=O)/N=C(/N)c1ccc(NCc2nc3cc(C(=O)N(CCC(=O)OCC)c4ccccc4F)ccc3n2C)cc1`, the PT with Rattus norvegicus [1] was 11.82 s. Further, the Activity with Rattus norvegicus [2] was 1.853 g/L. The “inhibition (INH)” value with Rattus norvegicus [3] turned out to be 10.4%; with Rattus norvegicus [5], 37%. For the same molecule, the APTT in the assay on Rattus norvegicus [4] came to 24.33 s. Further, in the assay on Plasma, the TT is recorded as 180 s.

On to `CCCCCCOC(=O)/N=C(/N)c1ccc(NCc2nc3cc(C(=O)N(CCC(=O)OCC)c4ccccn4)ccc3n2C)c(F)c1`, for which the PT in the assay with Rattus norvegicus [1] is given as 12.28 s. Also, the Activity with Rattus norvegicus [2] stood at 1.939 g/L. Besides, the entries for the “inhibition (INH)” value in the assay with Rattus norvegicus [3] and with Rattus norvegicus [5] were 53.8% and 73%, respectively. The APTT in the assay with Rattus norvegicus [4] was found to be 25.43 s. The TT in the assay with Plasma is listed as 137.3 s.

With `CCCCCCOC(=O)NC(=N)c1ccc(NCc2nc3cc(C(=O)N(CCC(=O)OCC)c4ccccn4)ccc3n2C)cc1` [DABIGATRAN ETEXILATE], the PT in the assay with Rattus norvegicus [1] is on record as 57.2 s. The Activity in the assay on Rattus norvegicus [2] came to 1.561 g/L. Moreover, the entries for the “inhibition (INH)” value in the assay with Rattus norvegicus [3] and with Rattus norvegicus [5] were 92.9% and 76%, respectively. Also, in the assay on Rattus norvegicus [4], the APTT is reported as 76.57 s. For the same molecule, the TT in the assay on Plasma was 180 s.
